Data: publication PMC8683641 (Journal of medicinal chemistry, 2021)

Experiments:
hCB2 [1] = conditions: literature values; cited from earlier work
[2] = biological target: hCB2 Cannabinoid Receptors (Homo sapiens, UniProt P34972); experiment: [35S]GTPγS binding assay for efficacy, CHO-hCB2 membranes; type: biochemical; conditions: from [35S]GTPγS binding
hCB2 [3] = type: binding, human; conditions: Ki hCB1 / Ki hCB2
hCB1 = hCB1 (Homo sapiens, UniProt P21554); type: binding; conditions: propyl tail versus pentyl
Sequence of hCB1 (P21554 whole entry): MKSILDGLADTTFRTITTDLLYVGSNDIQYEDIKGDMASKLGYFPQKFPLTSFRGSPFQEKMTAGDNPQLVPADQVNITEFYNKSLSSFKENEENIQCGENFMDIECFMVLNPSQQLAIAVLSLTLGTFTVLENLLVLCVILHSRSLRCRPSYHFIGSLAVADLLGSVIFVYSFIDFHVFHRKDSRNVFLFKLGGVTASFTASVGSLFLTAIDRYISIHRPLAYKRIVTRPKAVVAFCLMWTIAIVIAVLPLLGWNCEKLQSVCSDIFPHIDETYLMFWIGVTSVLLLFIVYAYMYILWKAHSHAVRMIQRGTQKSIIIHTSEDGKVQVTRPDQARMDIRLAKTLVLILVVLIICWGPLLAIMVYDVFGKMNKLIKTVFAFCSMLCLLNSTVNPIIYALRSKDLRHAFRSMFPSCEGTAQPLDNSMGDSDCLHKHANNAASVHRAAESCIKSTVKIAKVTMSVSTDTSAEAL

Sequence of hCB2 Cannabinoid Receptors (P34972 whole entry): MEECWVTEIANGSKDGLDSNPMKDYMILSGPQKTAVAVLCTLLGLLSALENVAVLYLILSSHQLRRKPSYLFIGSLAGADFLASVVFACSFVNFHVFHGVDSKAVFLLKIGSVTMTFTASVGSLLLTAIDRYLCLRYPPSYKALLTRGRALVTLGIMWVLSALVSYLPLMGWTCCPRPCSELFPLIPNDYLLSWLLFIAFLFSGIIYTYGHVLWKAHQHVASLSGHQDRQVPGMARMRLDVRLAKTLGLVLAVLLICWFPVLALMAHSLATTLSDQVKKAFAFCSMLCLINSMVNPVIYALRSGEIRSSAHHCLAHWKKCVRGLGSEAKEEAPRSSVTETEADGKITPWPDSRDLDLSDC

## CCCn1c(C)c(C(=O)c2cccc3ccccc23)c2ccccc21 [JWH-015]
hCB2 [1]
  SI (CB2 selectivity): 24

## CCCCCn1cc(C(=O)c2ccc3c(c2)CC(C)(C)C3)c2ccccc21 [GBD-003, (2,2-Dimethyl-2,3-dihydro-1H-inden-5-yl) (1-pentyl-1H-indol-3-yl)methanone]
[2]
  functional characterization at hCB2: CB2R antagonist

## CCCCCn1cc(C(=O)c2cccc3c2CC(C)(C)C3)c2ccccc21 [GBD-002, (2,2-dimethyl-2,3-dihydro-1H-inden-4-yl) (1-pentyl-1H-indol-3-yl)methanone]
[2]
  functional characterization at hCB2: full agonist

## C=CCCCn1cc(C(=O)c2ccc3c(c2)CC(C)(C)C3)c2ccccc21 [GBD-013, (2,2-Dimethyl-2,3-dihydro-1H-inden-5-yl) (1-(pent-4-en-1-yl)-1H-indol-3-yl)methanone]
hCB2 [3]
  selectivity index (SI) for CB2: 10

## C#CCCCn1c(C)c(C(=O)c2ccc3c(c2)CC(C)(C)C3)c2ccccc21 [GBD-029, (2,2-Dimethyl-2,3-dihydro-1H-inden-5-yl) (2-methyl-1-(pent-4-yn-1-yl)-1H-indol-3-yl)methanone]
[2]; listed as 49
  functional characterization at hCB2: agonist

## CCCn1cc(C(=O)c2cccc3ccccc23)c2ccccc21 [JWH-072]
hCB2 [1]
  SI (CB2 selectivity): 6

## CCCn1cc(C(=O)c2ccc3c(c2)CC(C)(C)C3)c2ccccc21 [GBD-005, (2,2-dimethyl-2,3-dihydro-1H-inden-5-yl) (1-propyl-1H-indol-3-yl)methanone]
[2]
  functional characterization at hCB2: neutral antagonists
hCB1
  reduction in CB1R affinity: > 60 fold

## C#CCCCn1cc(C(=O)c2ccc3c(c2)CC(C)(C)C3)c2ccccc21 [GBD-014, (2,2-Dimethyl-2,3-dihydro-1H-inden-5-yl) (1-(pent-4-yn-1-yl)-1H-indol-3-yl)methanone]
[2]; listed as 35
  functional characterization at hCB2: neutral antagonists
